From patent US11214772B2, “Production method for retinal tissue” (SUMITOMO DAINIPPON PHARMA CO., LTD., priority 2014, dated 2022)

B1: BMP4: human recombinant BMP4 (manufactured by R&D), BMP signal transduction pathway activating substance (protein, UniProt P12644 293-408, looked up)
Bone morphogenetic protein 4: SPKHHSQRARKKNKNCRRHSLYVDFSDVGWNDWIVAPPGYQAFYCHGDCPFPLADHLNSTNHAIVQTLVNSVNSSIPKACCVPTELSAISMLYLDEYDKVVLKNYQEMVVEGCGCR

Experiments:
Type in all cases: cell-based
[1] = tested on: human iPS cells (1231A3 strain); assay: Immunostaining of aggregate cryosections for retinal tissue markers Chx10 and Rx; conditions: Example 7, BMP4 1.5 nM day 3, day 18
Text: The above cell aggregates on day 19 after the start of suspension culturing were each fixed with 4% para-formaldehyde to give cryosections. These cryosections were immunostained for Chx10 (anti-Chx10 antibody, manufactured by Exalpha, sheep), which is one of the retinal tissue markers, or Rx (anti-Rx antibody, manufactured by TAKARA, guinea pig), which is one of the retinal tissue markers. In judgment of whether the above marker is positive in the immunostaining analysis, a fluorescence intensity which is not less than 2 times higher than that of the background was taken as positive.
The thus-prepared cell aggregates on day 18 after the start of suspension culturing, which were produced by adding SAG in step 2 from feeder-free iPS cells as a starting material, were fixed with 4% para-formaldehyde to produce frozen sections. These frozen sections were immunostained for Chx10 (anti-Chx10 antibody, Exalpha, sheep), which is one of the retinal tissue markers, or Rx (anti-Rx antibody, manufactured by TAKARA, guinea pig), which is one of the retinal tissue markers. These immunostained sections were observed under an inverted fluorescence microscope.
The cell aggregates on day 18 after the start of suspension culturing were fixed with 4% para-formaldehyde to produce frozen sections. These frozen sections were immunostained for Chx10 (anti-Chx10 antibody, Exalpha, sheep), which is one of the retinal tissue markers.

[2] = tested on: human iPS cells (1231A3 strain); assay: Bright field observation of cell aggregates in suspension culture (aggregate shape, neuroepithelium / neural tissue formation); conditions: for aggregate growth and neuroepithelium formation (bright field): Example 7, SAG 30 nM, PMA 0.2 μM or human recombinant Shh 300 ng/ml day 0, BMP4 1.5 nM day 3
Experimental: The above subconfluent human iPS cells were treated with a cell dispersion solution by using TrypLE Select (Life Technologies), and further dispersed into single cells by a pipetting operation. Thereafter, the above human iPS cells dispersed into single cells were suspended in 100 μl of a serum-free medium in a non-cell-adhesive 96 well culture plate (PrimeSurface 96V-bottom plate, SUMITOMO BAKELITE) at 1.2×10^4 cells per well, and subjected to suspension culturing at 37° C., 5% CO2. As a serum-free medium (gfCDM+KSR) therefor, a 1:1 mixture of F-12 medium and IMDM medium supplemented with 10% KSR, 450 μM 1-monothioglycerol, 1× Chemically defined lipid concentrate was used. At the start of the suspension culturing (on day 0 after the start of suspension culturing, step 2 start), Y27632 (final concentration 20 μM) was added to the above serum-free medium. By day 2 after the start of suspension culturing, cell aggregates were formed (step 2 completed, and step 3 start). On day 3 after the start of suspension culturing, a serum-free medium (50 μl) free of Y27632 was added.
On day 6 after the start of suspension culturing, a half amount of the medium was changed with a medium free of Y27632 and containing or not containing human recombinant BMP4 (manufactured by R&D) to adjust the final concentration of exogenous human recombinant BMP4 to 1.5 nM (55 ng/ml, FIG. 1B) or to give a medium free of exogenous human recombinant BMP4 (FIG. 1A). As the half-medium exchange operation, a half volume of the medium in the culture vessel, namely 75 μl, was discarded, the above fresh serum-free medium (75 μl) was added to adjust the total medium amount to 150 μl. Thereafter, a half amount of the medium was changed with the above serum-free medium free of Y27632 and human recombinant BMP4 once per 2-4 days. […]
The thus-prepared subconfluent human iPS cells were treated with a cell dispersion solution by using TrypLE Select (Life Technologies), and further dispersed into single cells by a pipetting operation. Thereafter, the above human iPS cells dispersed into single cells were suspended in 100 μl of a serum-free medium in a non-cell-adhesive 96 well culture plate (PrimeSurface 96V-bottom plate, SUMITOMO BAKELITE) at 1.2×10^4 cells per well, and subjected to suspension culturing at 37° C., 5% CO2. As a serum-free medium (gfCDM+KSR) therefor, a 1:1 mixture of F-12 medium and IMDM medium supplemented with 10% KSR, 450 μM 1-monothioglycerol, 1× Chemically defined lipid concentrate was used. […] By day 2 after the start of suspension culturing, cell aggregates were formed (step 2 completed, step 3 start). On day 3 after the start of suspension culturing, a serum-free medium (50 μl) free of Y27632 and SAG was added. On day 6 after the start of suspension culturing, a half amount of the medium was changed with a medium free of Y27632 and containing or not containing human recombinant BMP4 (manufactured by R&D) to adjust the final concentration of exogenous human recombinant BMP4 to 1.5 nM (55 ng/ml, FIG. 1D) or to give a medium free of exogenous human recombinant BMP4 (FIG. 1C). As the half-medium exchange operation, a half volume of the medium in the culture vessel, namely 75 μl, was discarded, the above fresh serum-free medium (75 μl) was added to adjust the total medium amount to 150 μl. Thereafter, a half amount of the medium was changed with the above serum-free medium free of Y27632, SAG and human recombinant BMP4 once per 2-4 days. […]
The thus-prepared subconfluent human iPS cells were treated with the cell dispersion solution by using TrypLE Select (Life Technologies), further dispersed into single cells by pipetting operation, and the above human iPS cells dispersed into single cells were suspended in 100 μl of a serum-free medium at 1.2×10^4 cells per well of a non-cell-adhesive 96-well culture plate (PrimeSurface 96V-bottom plate, manufactured by SUMITOMO BAKELITE). Thereafter, the cells were subjected to suspension culturing at 37° C., 5% CO2. […]

[3] = tested on: human iPS cells (201B7 strain); assay: Bright field observation of cell aggregates in suspension culture (neuroepithelium formation); conditions: Example 6; StemFit; SAG 30 nM, Purmorphamine 0.2 μM or human recombinant Shh 50 ng/ml day 0; BMP4 1.5 nM day 3; day 18
Experimental: The thus-prepared subconfluent human iPS cells were treated with the cell dispersion solution by using TrypLE Select (manufactured by Life Technologies), further dispersed into single cells by pipetting operation, and the above human iPS cells dispersed into single cells were suspended in 100 μl of a serum-free medium at 1.2×10^4 cells per well of a non-cell-adhesive 96-well culture plate (PrimeSurface 96V-bottom plate, SUMITOMO BAKELITE). Thereafter, the cells were subjected to suspension culturing at 37° C., 5% CO2. As the serum-free medium (gfCDM+KSR) therefor, a serum-free medium which is a 1:1 mixture of F-12 medium and IMDM medium supplemented with 10% KSR, 450 μM 1-monothioglycerol, 1× Chemically defined lipid concentrate was used. At the time of the start of suspension culturing (day 0 after the start of suspension culturing, start of step 2), a serum-free medium supplemented with SAG (final concentration […]) as a Shh signal transduction pathway activating substance and Y27632 (20 μM) was used (FIG. 5A-D). By day 2 after the start of suspension culturing, cell aggregates were formed. On day 3 after the start of suspension culturing, a serum-free medium (50 μl) free of Y27632 and SAG was added. […] The thus-prepared cell aggregates were subjected to bright field observation under an inverted microscope (BIOREVO manufactured by KEYENCE) on day 18 after the start of suspension culturing.
The thus-prepared subconfluent human iPS cells were treated with the cell dispersion solution by using TrypLE Select (manufactured by Life Technologies), further dispersed into single cells by pipetting operation, and the above human iPS cells dispersed into single cells were suspended in 100 μl of a serum-free medium at 1.0×10^4 cells per well of a non-cell-adhesive 96-well culture plate (SUMILON SPHEROID V-bottom plate PrimeSurface 96V-bottom plate, SUMITOMO BAKELITE). Thereafter, the cells were subjected to suspension culturing at 37° C., 5% CO2. As the serum-free medium (gfCDM+KSR) therefor, a serum-free medium which is a 1:1 mixture of F-12 medium and IMDM medium supplemented with 10% KSR, 450 μM 1-monothioglycerol, 1× Chemically defined lipid concentrate was used. At the time of the start of suspension culturing (day 0 after the start of suspension culturing, start of step 2), the above serum-free medium supplemented with Y27632 (final concentration 20 μM) and further supplemented with SAG (final concentration 30 nM), Purmorphamine (manufactured by Wako, final concentration 0.2 μM), or human recombinant Shh (manufactured by R&D, Recombinant N-Terminus, final concentration 50 ng/ml) as a Shh signal transduction pathway activating substance was used (FIG. 8). On day 2 after the start of suspension culturing, a cell aggregates were formed. […]

[4] = Comparative Example 1, StemFit, no SAG, BMP4 1.5 nM on day 6, observed day 19
[5] = Example 2 Condition 2, Essential 8, no SAG, BMP4 1.5 nM day 6, day 18

Row | Molecule | proportion of Chx10-positive cells in the total cells ([1]; PMA 0.2 μM day 0) | aggregate growth and neuroepithelium formation (bright field) ([2]; StemFit, day 18) | neuroepithelium formation (bright field) [3] | presence of Chx10-positive cells in the cell aggregate ([1]; SAG 30 nM or Shh 300 ng/ml day 0) | cell aggregates collapsed [2, 4] | neural tissue formation efficiency [2, 4] | cell aggregates collapsed [2, 5] | formation efficiency of neural tissue [2, 5]
1 | c1ccc2c(Oc3nc(Nc4ccc(N5CCOCC5)cc4)c4ncn(C5CCCCC5)c4n3)cccc2c1 [PMA, 9-cyclohexyl-N-[4-(4-morpholinyl)phenyl]-2-(l-naphthalenyloxy)-9H-purin-6-amine] | not more than 60% | cell aggregates grew and neuroepithelium was formed | neuroepithelium was formed | – | – | – | – | –
2 | Shh: human recombinant Shh (manufactured by R&D, Recombinant N-Terminus), Sonic hedgehog signal transduction pathway activating substance | – | cell aggregates grew and neuroepithelium was formed | neuroepithelium was formed | contained Chx10-positive cells | – | – | – | –
3 | B1 | – | – | – | – | not less than 90% | poor | not less than 80% | poor
